# Measurements from ChEMBL document CHEMBL3792277, “Structurally Diverse Mitochondrial Branched Chain Aminotransferase (BCATm) Leads with Varying Binding Modes Identified by Fragment Screening” (J Med Chem, 2016).
# Target: T1, Branched-chain-amino-acid aminotransferase, mitochondrial (Homo sapiens, UniProt O15382)
# T1 sequence (O15382 whole entry): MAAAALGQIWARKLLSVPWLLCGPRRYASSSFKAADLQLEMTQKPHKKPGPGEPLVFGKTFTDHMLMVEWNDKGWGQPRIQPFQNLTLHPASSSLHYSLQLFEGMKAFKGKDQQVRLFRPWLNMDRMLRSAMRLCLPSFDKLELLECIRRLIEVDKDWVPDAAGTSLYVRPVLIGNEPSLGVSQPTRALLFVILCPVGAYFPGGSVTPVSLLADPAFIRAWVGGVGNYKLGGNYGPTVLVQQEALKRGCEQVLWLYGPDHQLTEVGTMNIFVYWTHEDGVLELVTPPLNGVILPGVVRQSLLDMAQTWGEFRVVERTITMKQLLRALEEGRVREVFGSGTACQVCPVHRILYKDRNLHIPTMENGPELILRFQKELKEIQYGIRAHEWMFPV
# Experiment: Inhibition of human BCATm incubated for 10 mins by Amplex red- based fluorescence analysis
row,Structure (SMILES),IC50 [µM]
1,Cc1ccccc1NC(=O)c1sc2ncnc(O)c2c1C,50.1
2,Cc1c(C(=O)Nc2ccccc2)sc2ncnc(O)c12,7.94
3,Cc1c(C(=O)O)sc2ncn(C)c(=O)c12,63.1
4,NC(=O)c1ccc(N2CCc3ccccc3C2=O)cc1,15.8
5,O=C(O)Cc1noc2ccccc12,> 1260
6,O=C(Nc1ccc(-c2cc[nH]n2)cc1)c1ccccc1,5.01
7,NC(=O)c1sccc1-c1ccccc1,158
8,O=C(O)Cc1ccccc1C(=O)Nc1ccccc1,316
9,OCc1ccc2nsnc2c1,> 1260
10,Cc1c(C(=O)NC2CCCC2)sc2ncn(C)c(=O)c12,> 63.1
11,CC1CNc2c(cccc2S(N)(=O)=O)C1 (configuration not stated),> 1260
12,O=C(Nc1cnc(-c2cc[nH]n2)nc1)c1ccccc1,3.16
13,CS(=O)(=O)c1ccccc1C(=O)Nc1ccccc1,200
14,Cc1c(C(=O)N2CCCCC2)sc2ncn(C)c(=O)c12,> 631
15,O=C(Nc1cncnc1)c1ccccc1,1000
16,O=C(CO)NC1CCCc2ccccc21 (configuration not stated),> 1260

row,Structure (SMILES),IC50 [µM]
1,Nc1ccc(Oc2ccccc2)nn1,126
2,CCOC(=O)Cc1ccccc1NC(=O)c1sc2nc[nH]c(=O)c2c1C,> 63.1
3,O=C1c2ccccc2CCN1c1ccc(-c2cc[nH]n2)cc1,1.58
4,Cc1cccc(NC(=O)c2sc3nc[nH]c(=O)c3c2C)c1,> 63.1
5,O=C(O)Cc1ccccc1C(=O)Nc1ccc(-c2cc[nH]n2)cc1,2
6,NC(=O)c1ccc(NC(=O)c2ccc(Cl)c(Cl)c2)cc1,2.51
7,NC(=O)c1ccccc1-c1ccccc1,158
8,NC(=O)NCC(O)c1ccccc1 (configuration not stated),794
9,Cc1c(C(=O)Nc2ccccc2)sc2ncn(C)c(=O)c12,7.94
10,Cc1cc2cc(C)c(SCC(=O)O)nc2cc1C,0.251
11,Cc1ccc(NC(=O)c2sc3nc[nH]c(=O)c3c2C)cc1,> 63.1
12,Cc1c(C(=O)Nc2ccon2)sc2nc[nH]c(=O)c12,> 63.1
13,Cc1c(C(=O)Nc2ccccc2S(C)(=O)=O)sc2nc[nH]c(=O)c12,> 63.1
14,NC(=O)c1ccc(NC(=O)c2ccccc2)cc1,50.1
15,CC(C)C(Sc1ncnc2ccccc12)C(=O)O (configuration not stated),7.94
16,O=C(Nc1ccccc1)c1ccccc1 [N-PHENYLBENZAMIDE],> 631

# Tested on: not listed separately
# Experiment: Solubility of compound in PBS at pH 7.4 after 1 hr by chemiluminiscent nitrogen detection method
# Format: physicochemical
row,Structure (SMILES),solubility at 1 h [µg/mL]
1,NC(=O)c1ccc(N2CCc3ccccc3C2=O)cc1,132
2,O=C(Nc1ccc(-c2cc[nH]n2)cc1)c1ccccc1,12
3,O=C(Nc1cnc(-c2cc[nH]n2)nc1)c1ccccc1,82
4,O=C1c2ccccc2CCN1c1ccc(-c2cc[nH]n2)cc1,94
5,NC(=O)c1ccc(NC(=O)c2ccccc2)cc1,13
